Where two headings read alike, the source gives them in different places.
Key:
MCF-7 cells = assay: XTT cytotoxicity assay, breast cancer cells; type: cell-based, human
Description: (§1) The cells were cultured in RPMI medium (Sigma) supplemented with 10% heat-inactivated fetal bovine serum, 1% penicillin, and 1% L-glutamine, and incubated in a humidified CO2 atmosphere at 37 °C.
(§2) To evaluate the cytotoxic effects of TZEPs, which were dissolved in dimethyl sulfoxide (DMSO), the XTT assay (2,3-bis(2-methoxy-4-nitro-5-sulfophenyl)-2H-tetrazolium-5-carboxanilide) was employed. […] Following the incubation, 100 μL of XTT was added to each well, and the plates were incubated for an additional 4 h at 37 °C. The resulting color change was measured by recording the absorbance at 570 nm using a microplate reader (Tecan).
(§3) Conversely, an SI less than 1 means the drug is more toxic to normal cells than to target cells, which is undesirable in therapeutic contexts.

A549 cells = assay: XTT cytotoxicity assay, lung cancer cells; type: cell-based, human; conditions: for IC50: A549
Description: as §1, §2, §3

PC-3 cells = assay: XTT cytotoxicity assay, prostate cancer cells; type: cell-based, human
Description: as §1, §2, §3

EGFRWT mRNA = assay: qRT-PCR of EGFR mRNA expression; type: cell-based, human; conditions: vs untreated control
Description: To measure the mRNA expression levels of apoptosis-related genes B-cell lymphoma 2 (Bcl-2), Bcl-2-associated X protein (Bax), Cyclin-dependent kinase 2 (CDK2), and Cyclin E, total mRNA was extracted from cells treated with compound 6f using Trizol reagent (Sigma). cDNA was synthesized from the total mRNA using the Qiagen cDNA synthesis kit according to the manufacturer’s instructions. The following primers, each at a concentration of 350 nM, were employed: Bcl-2; forward ([…]), reverse ([…]); Bax; forward ([…]), reverse ([…]); Caspase-8; forward ([…]), reverse ([…]); Caspase-9; forward (TGTCTACGGCACAGATGGA), reverse (GGACTCGTCTTCAGGGGA); EGFRWT: forward ([…]), reverse (CCTGTGCCAGGGACCTTAC−); EGFRT790 M forward ([…]), reverse ([…]); human GAPDH; forward ([…]), reverse (AGATGGTGATGGGCTTCCC). The PCR mix was prepared with 1× buffer containing 0.2 mM dNTPs, 1.6 mM MgCl2, […] of each primer set, cDNA, and 0.25 U Taq polymerase. The PCR conditions were as follows: an initial denaturation at 95 °C for 60 s, followed by 50 cycles of 95 °C for 15 s, 60 °C for 15 s, and 72 °C for 60 s. The cycle threshold (CT) for each replicate was normalized to the average CT of the endogenous control (GAPDH). The relative quantification of gene expression was calculated using the comparative CT method.[17]

EGFRWT kinase = EGFRWT kinase (Homo sapiens, UniProt P00533); assay: EGFR kinase inhibition assay (HTRF KinEASE-TK); type: biochemical
Description: The inhibitory effects of the target compounds on various EGFR kinases were assessed using a homogeneous time-resolved fluorescence (HTRF) assay, employing the HTRF KinEASE-TK kit (Cat# 62TK0PEC, Cisbio).[18] TZEP7 was tested at a range of diluted concentrations in the presence of 1% dimethyl sulfoxide (DMSO), with the kinase and compounds preincubated for 5 min. The reactions were initiated by adding ATP and TK-substrate-biotin, followed by a 60 min incubation at room temperature. […] After a 1 h incubation of the plate, readings were taken on a microplate reader under standard HTRF conditions. IC50 values were calculated using GraphPad Prism 5.0 software. Each reaction was duplicated, and at least three independent determinations were conducted. The data were analyzed using GraphPad Prism.

[1] = XTT cytotoxicity assay, non-tumorigenic cells; type: cell-based; conditions: human, HEK-293 cells (nontumorigenic); HEK293, 0.1 μM; read-out: cell viability

EGFRWT kinase, sequence (P00533 25-1210): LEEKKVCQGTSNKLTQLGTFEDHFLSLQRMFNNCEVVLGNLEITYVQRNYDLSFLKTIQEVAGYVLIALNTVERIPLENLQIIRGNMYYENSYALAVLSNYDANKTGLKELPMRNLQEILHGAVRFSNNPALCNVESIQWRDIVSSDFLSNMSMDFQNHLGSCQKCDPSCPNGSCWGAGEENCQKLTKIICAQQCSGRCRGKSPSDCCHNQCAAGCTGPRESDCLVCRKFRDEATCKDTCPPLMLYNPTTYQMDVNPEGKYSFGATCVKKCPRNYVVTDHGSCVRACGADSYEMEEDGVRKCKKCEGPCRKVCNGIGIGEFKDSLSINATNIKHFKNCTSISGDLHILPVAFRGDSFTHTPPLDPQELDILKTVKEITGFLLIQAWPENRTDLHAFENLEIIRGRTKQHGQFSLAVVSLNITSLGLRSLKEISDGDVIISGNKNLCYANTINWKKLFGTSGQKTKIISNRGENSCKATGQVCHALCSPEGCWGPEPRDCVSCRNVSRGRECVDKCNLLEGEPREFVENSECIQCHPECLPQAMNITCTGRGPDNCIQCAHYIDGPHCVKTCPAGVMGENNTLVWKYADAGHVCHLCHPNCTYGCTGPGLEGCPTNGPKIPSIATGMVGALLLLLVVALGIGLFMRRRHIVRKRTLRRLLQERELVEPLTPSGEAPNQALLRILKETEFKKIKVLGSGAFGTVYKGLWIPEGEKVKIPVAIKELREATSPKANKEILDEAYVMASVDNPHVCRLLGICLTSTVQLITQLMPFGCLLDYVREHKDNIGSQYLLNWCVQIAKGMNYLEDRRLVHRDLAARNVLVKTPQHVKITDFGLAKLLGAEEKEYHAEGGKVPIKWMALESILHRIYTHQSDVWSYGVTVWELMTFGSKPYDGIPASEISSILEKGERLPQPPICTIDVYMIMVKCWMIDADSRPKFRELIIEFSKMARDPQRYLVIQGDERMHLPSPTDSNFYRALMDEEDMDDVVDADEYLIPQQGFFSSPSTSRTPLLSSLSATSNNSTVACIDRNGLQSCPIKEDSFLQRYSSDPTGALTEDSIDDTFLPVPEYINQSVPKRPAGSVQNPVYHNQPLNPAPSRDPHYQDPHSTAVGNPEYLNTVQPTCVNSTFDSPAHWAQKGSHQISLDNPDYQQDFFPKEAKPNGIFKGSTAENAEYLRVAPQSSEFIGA

Cc1cc(C2=NCC(=CC#Cc3ccccc3)SC(c3ccc(Cl)cc3)=C2)ccc1F [TZEP7]
viability at 0.1 µM (MCF-7 cells; Homo sapiens, MCF7, MCF-7, 0.1 μM, read-out: cell viability): 68%
viability at 1 µM (MCF-7 cells; Homo sapiens, MCF7, MCF-7, 1 μM, read-out: cell viability): 54%
viability at 10 µM (MCF-7 cells; Homo sapiens, MCF7, MCF-7, 10 μM, read-out: cell viability): 44%
viability at 50 µM (MCF-7 cells; Homo sapiens, MCF7, MCF-7, 50 μM, read-out: cell viability): 28%
viability at 100 µM (MCF-7 cells; Homo sapiens, MCF7, MCF-7, 100 μM, read-out: cell viability): 18%
IC50 (MCF-7 cells; Homo sapiens, MCF7, XTT assay, exposure time of the IC50 not stated (24, 48, 72 h tested), read-out: IC50, breast cancer (MCF-7)): 14.1 ± 2.1 µM
IC50 (MCF-7 cells; Homo sapiens, MCF7, dose–response curve of Figure 2, read-out: IC50, MCF-7, dose–response curve): 14.2 µM
Selectivity index (SI), breast cancer (MCF-7) (MCF-7 cells; versus normal cells HEK-293): 3.85
IC50 (A549 cells; Homo sapiens, XTT assay, exposure time of the IC50 not stated (24, 48, 72 h tested), read-out: IC50, lung cancer (A549)): 12.7 ± 2 µM
IC50 (A549 cells; Homo sapiens, dose–response curve of Figure 2, read-out: IC50, A549, dose–response curve): 12.1 µM
viability at 0.1 µM (A549 cells; Homo sapiens, A549, 0.1 μM, read-out: cell viability): 68%
viability at 1 µM (A549 cells; Homo sapiens, A549, 1 μM, read-out: cell viability): 53%
viability at 10 µM (A549 cells; Homo sapiens, A549, 10 μM, read-out: cell viability): 40%
viability at 50 µM (A549 cells; Homo sapiens, A549, 50 μM, read-out: cell viability): 30%
viability at 100 µM (A549 cells; Homo sapiens, A549, 100 μM, read-out: cell viability): 10%
Selectivity index (SI), lung cancer (A549) (A549 cells; versus normal cells HEK-293): 4.27
IC50 (PC-3 cells; Homo sapiens, PC-3, XTT assay, exposure time of the IC50 not stated (24, 48, 72 h tested), read-out: IC50, prostate cancer (PC-3)): 16.9 ± 1.6 µM
viability at 0.1 µM (PC-3 cells; Homo sapiens, PC-3, 0.1 μM, read-out: cell viability): 83%
viability at 1 µM (PC-3 cells; Homo sapiens, PC-3, 1 μM, read-out: cell viability): 71%
viability at 10 µM (PC-3 cells; Homo sapiens, PC-3, 10 μM, read-out: cell viability): 22%
viability at 50 µM (PC-3 cells; Homo sapiens, PC-3, 50 μM, read-out: cell viability): 18%
viability at 100 µM (PC-3 cells; Homo sapiens, PC-3, 100 μM, read-out: cell viability): 12%
Selectivity index (SI), prostate cancer (PC-3) (PC-3 cells; versus normal cells HEK-293): 3.21
downregulation of EGFRWT mRNA (EGFRWT mRNA; A549, 72 h): 4.6 fold
downregulation of EGFRWT mRNA (EGFRWT mRNA; MCF-7, 72 h): 3.8 fold
downregulation of EGFRWT mRNA (EGFRWT mRNA; PC-3, 72 h): 3.4 fold
IC50 (EGFRWT kinase): 380 nM
IC50 (EGFRWT kinase; A549 cells): 360 nM
viability at 0.1 µM [1]: 87.3%

Source: paper PMC11740379, “Novel Enyne-Modified 1,4-Thiazepines as Epidermal Growth Factor Receptor Inhibitors: Anticancer and Computational Studies” (ACS Omega, 2024)
